In brackets after ≈: the same amount, converted by molar mass. One block for each molecule: values may come before it. Numbered stars: 1 amine (or outer) side, 2 acyl side, 3 side chain; on linkers, the order of the positions; unused ones are H or OH. Square brackets hold non-standard residues; d marks the D form. Peptide text beside a SMILES is read from it. X2 = CCC[C@H](C)N(CC(=O)[*:2])[*:1]; Nspe = C[C@H](NCC(=O)O)c1ccccc1; Nphe = O=C(O)CNCc1ccccc1; Nlys = NCCCCNCC(=O)O
How the values were obtained:
[1] = system: E. coli JM109; assay type: cell-based; details: Table 1; SR = (HD10)/(E. coli MIC)
Excerpt: An initial set of 15 ampetoid analogs was synthesized to determine whether peptoids are affected by structural and sequence modifications in a manner consistent with AMP activities. The designs for ampetoids in this library were derived from two antibacterial and selective amphipathic dodecamers, 1 and 2. Peptoid 1 [H-(Nlys-Nspe-Nspe)4-NH2] is composed of 2/3 Nspe, the peptoid analog of phenylalanine, and 1/3 Mys, the peptoid analog of lysine (see FIG. 1 for the structures of representative peptoid monomers and corresponding N-substituents). Peptoid 2 [H-(Mys-Nssb-Nspe)4-NH2] contains 1/3 isoleucine-like Nssb monomers in place of Nspe. The variant sequences were designed to effect changes in chirality, length, hydrophobicity, charge, and amphipathicity. All of these compounds were tested for antibacterial activity against representative BSL1 Gram-negative (E. coli JM109) and Gram-positive (B. subtilis BR151) bacterial strains. As an initial measure of selectivity, the lytic activity of the peptoids was determined against human erythrocytes. Table 1 summarizes the sequences synthesized, the solvent composition at RP-HPLC elution as a relative measure of molecular hydrophobicity, and antibacterial and hemolytic activities.
Antibacterial assays. MICs were determined according to CLSI M7-A6 protocols in a 96-well microtiter plate. […]

[2] = system: human erythrocytes; test: Hemolysis assay; assay type: cell-based
Summary of the method: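 Peptoid dilution series (1:2 in PBS) combined with equal volume of 20 vol % human red cells from heparinised blood, 37 °C for 1 h. Released hemoglobin measured as supernatant absorbance at 350 nm post-centrifugation, scaled between PBS-only wells and 0.2 vol % Triton X-100 total lysis.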

[3] = system: A549 lung epithelial cells; test: MTS assay, A549 cells
Procedure: The biocompatibility of selected oligomers with A549 lung epithelial cells was evaluated using the MTS [3-(4,5-dimethylthiazol-2-yl)-5-(3-carboxymethoxyphenyl)-2-(4-sulfophenyl)-2H-tetrazolium] assay.
MTS Assays. A549 carcinoma-derived lung epithelial cells (ATTC CCL-185) were cultured in Ham's F12K media (ATTC, Manassas, Va.). A peptoid solution plate (100 μL/well) was prepared by serial dilution of aqueous peptoid stocks in media. Peptoid solutions were transferred onto a 96-well plate of day-old cell monolayers containing 100 μL/well media with 5000 cells/well. MTS reagent (Promega Corporation, Madison, Wis.) (40 μL/well) was added to each well and the plate was incubated at 37° C. for 3 h, after which absorbance at 490 nm was determined. Percent inhibition was determined as [1−(A−Atest blank)/(Acontrol−Ablank)]×100, where A is the absorbance of the test well and Acontrol the average absorbance of wells with cells exposed to media and MTS (no peptoid). Atest blank (media, MTS, and peptoid) and Ablank (media and MTS) were background absorbances measured in the absence of cells. The average of six replicates are reported, and error bars show one standard deviation.

[4] = system: B. subtilis ATCC 6633; assay type: cell-based; details: ATCC 6633
Summary of the method: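 Broth microdilution MICs per CLSI M7-A6 in cation-adjusted Mueller-Hinton broth, using 1×10^6 CFU/mL inoculum added 1:1 to twofold serial peptoid dilutions. Values reproducible across three independent experiments, each with two parallel trials.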

[5] = system: E. coli ATCC 35218; assay type: cell-based; details: ATCC 35218
[6] = MTS assay, NIH 3T3 cells; assay type: cell-based, mouse; details: mouse, NIH 3T3 fibroblast cells
Summary of the method: (§1)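 NIH/3T3 cells seeded at 5,000 per well, grown a day in DMEM with 10% FBS, then washed and exposed to serially diluted peptoid in HBSS together with MTS reagent. Absorbance at 490 nm read after 3 hours at 37 °C as a measure of metabolic activity; mean of six replicates.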

[7] = system: NIH 3T3 mouse fibroblast cells; test: MTS assay, NIH 3T3 cells; assay type: cell-based
Summary of the method: as §1

[8] = system: Enterobacter aerogenes ATCC 35029; assay type: cell-based; details: ATCC 35029
Procedure: (§2) Antibacterial assays. MICs were determined according to CLSI M7-A6 protocols in a 96-well microtiter plate. In test wells, 50 uL bacterial inoculum (5×10^5 CFU/ml) in Mueller-Hinton broth (MHB) was added to 50 μL peptoid solution in MHB (prepared by 1:2 serial dilutions). Positive controls contained 50 μL inoculum and 50 μL MHB without peptoid. […] MIC values reported were reproducible between three independent experimental replicates, each consisting of two parallel trials. Broad-spectrum antimicrobial susceptibility testing was performed against BSL2 pathogens by Nova Biologicals, Inc. (Conroe, Tex.).
(§3) Broad-spectrum antibacterial assays. MICs of compounds were determined by microdilution procedure in Mueller-Hinton broth (MHB) in accordance with CLSI M7-A6 protocols in a manner similar to that described for the screen antibacterial assays. Inoculated microtiter plates were incubated at 35° C. for 24 hours prior to the result being recorded. Four ATCC strains that were used as standards are recommended by CLSI: Pseudomonas aeruginosa ATCC 27853, Escherichia coli ATCC 25922, Staphylococcus aureus ATCC 29213 and Enterococcus faecalis ATCC 29212. Other strains from the ATCC collection include Proteus vulgaris ATCC 49132, Proteus mirabilis ATCC 35659, Klebsiella pneumoniae ATCC 33495, Enterobacter aerogenes ATCC 35029 and Serratia marcescens ATCC 13880. S. aureus NRS100 (COL) is a well characterized methicillian-resistant S. aureus (MRSA) strain. The strains S. aureus VAN1 and S. aureus VAN2, vancomycin-resistant MRSA strains that were isolated in Michigan and Pennsylvania, were the first vancomycin-resistant strains clinically isolated. S. aureus NRS 119 and S. aureus NRS 120 are linezolid-resistant isolates from the Network on Antimicrobial Resistance in S. aureus (NARSA) collection. E. faecalis 99 and E. faecium 106 are vancomycin-resistant enterococcal strains.

[9] = system: Enterococcus faecalis 99; assay type: cell-based; details: 99
Procedure: as §2, §3

[10] = system: Enterococcus faecalis ATCC 29212; assay type: cell-based; details: ATCC 29212
Procedure: as §2, §3

[11] = system: Enterococcus faecium 106; assay type: cell-based; details: 106
Procedure: as §2, §3

[12] = system: Escherichia coli ATCC 25922; assay type: cell-based; details: ATCC 25922
Procedure: as §2, §3

[13] = system: Klebsiella pneumoniae ATCC 33495; assay type: cell-based; details: ATCC 33495
Procedure: as §2, §3

[14] = system: Proteus vulgaris ATCC 49132; assay type: cell-based; details: ATCC 49132
Procedure: as §2, §3

[15] = system: Pseudomonas aeruginosa ATCC 27853; assay type: cell-based; details: ATCC 27853
Procedure: as §2, §3

[16] = system: Staphylococcus aureus ATCC 29213; assay type: cell-based; details: ATCC 29213
Procedure: as §2, §3

[17] = system: Staphylococcus aureus NRS100 (COL); assay type: cell-based; details: NRS100 (COL)
Procedure: as §2, §3

[18] = system: Staphylococcus aureus NRS119; assay type: cell-based; details: NRS119
Procedure: as §2, §3

[19] = system: Staphylococcus aureus NRS120; assay type: cell-based; details: NRS120
Procedure: as §2, §3

[20] = system: Staphylococcus aureus VAN1; assay type: cell-based; details: VAN1
Procedure: as §2, §3

[21] = system: Staphylococcus aureus VAN2; assay type: cell-based; details: VAN2
Procedure: as §2, §3

Structure (SMILES): CCC[C@H](C)N(CC(=O)N(CC(N)=O)[C@@H](C)c1ccccc1)C(=O)CN(CCCCN)C(=O)CN(C(=O)CN(C(=O)CN(CCCCN)C(=O)CN(C(=O)CN(C(=O)CN(CCCCN)C(=O)CN(C(=O)CN(C(=O)CNCCCCN)[C@@H](C)CCC)[C@@H](C)c1ccccc1)[C@@H](C)CCC)[C@@H](C)c1ccccc1)[C@@H](C)CCC)[C@@H](C)c1ccccc1 [2-Nsap2,5,8,11, H-(Nlys-Nsap-Nspe)4-NH2] (H-[Nlys][X2][Nspe][Nlys][X2][Nspe][Nlys][X2][Nspe][Nlys][X2][Nspe]-NH2)
- Selectivity ratio (SR) [1]: >16

- ID10 relative to that of pexiganan [3]: 10 times
- MIC for B. subtilis ATCC 6633 [4]: 1.6 µM
- E. coli MIC [5]: 12.5 µM
- MIC for E. coli ATCC 35218 [5]: 12.5 µM
Structure (SMILES): C[C@@H](c1ccccc1)N(CC(N)=O)C(=O)CN(C(=O)CN(CCCCN)C(=O)CN(C(=O)CN(C(=O)CN(CCCCN)C(=O)[C@@H]1CCCN1C(=O)CN(C(=O)CN(CCCCN)C(=O)CN(C(=O)CN(C(=O)CNCCCCN)[C@@H](C)c1ccccc1)[C@@H](C)c1ccccc1)[C@@H](C)c1ccccc1)[C@@H](C)c1ccccc1)[C@@H](C)c1ccccc1)[C@@H](C)c1ccccc1 [1-Pro6, H-Nlys-Nspe-Nspe-Nlys-Nspe-L-Pro-(Nlys-Nspe-Nspe)2-NH2] (H-[Nlys][Nspe][Nspe][Nlys][Nspe]P[Nlys][Nspe][Nspe][Nlys][Nspe][Nspe]-NH2)
- HD10 [2]: 83 µM
- HD50 [2]: > 200 µM
- CC50 at 3 h [6]: 18 µM

- E. coli MIC [5]: 6.3 µM
- ID50 [7]: 15 µM
Structure (SMILES): C[C@@H](c1ccccc1)N(CC(N)=O)C(=O)CN(Cc1ccccc1)C(=O)CN(CCCCN)C(=O)CN(Cc1ccccc1)C(=O)CN(Cc1ccccc1)C(=O)CN(CCCCN)C(=O)CN(Cc1ccccc1)C(=O)CN(Cc1ccccc1)C(=O)CN(CCCCN)C(=O)CN(Cc1ccccc1)C(=O)CN(Cc1ccccc1)C(=O)CNCCCCN [1achiral-Nspe12, H-(Nlys-Npm-Npm)3-(Nlys-Npm-Nspe)-NH2]
- HD50 [2]: > 200 µM
- CC50 at 3 h [6]: 15 µM

Structure (SMILES): C[C@@H](c1ccccc1)N(CC(N)=O)C(=O)CN(C(=O)CN(CCCCN)C(=O)CN(C(=O)CN(C(=O)CN(CCCCN)C(=O)CN(C(=O)CN(C(=O)CN(CCCCN)C(=O)CN(C(=O)CN(C(=O)CN(CCCCN)C(=O)CN(C(=O)CN(C(=O)CNCCCCN)[C@@H](C)c1ccccc1)[C@@H](C)c1ccccc1)[C@@H](C)c1ccccc1)[C@@H](C)c1ccccc1)[C@@H](C)c1ccccc1)[C@@H](C)c1ccccc1)[C@@H](C)c1ccccc1)[C@@H](C)c1ccccc1)[C@@H](C)c1ccccc1 [115 mer, H-(Nlys-Nspe-Nspe)5-NH2]
- cytotoxicity (in words) ([3]; A549 lung epithelial cells, MTS, FIG. 2): no worse than pexiganan

Structure (SMILES): C[C@@H](c1ccccc1)N(CC(N)=O)C(=O)CN(Cc1ccccc1)C(=O)CN(CCCCN)C(=O)CN(C(=O)CN(Cc1ccccc1)C(=O)CN(CCCCN)C(=O)CN(C(=O)CN(Cc1ccccc1)C(=O)CN(CCCCN)C(=O)CN(C(=O)CN(Cc1ccccc1)C(=O)CNCCCCN)[C@@H](C)c1ccccc1)[C@@H](C)c1ccccc1)[C@@H](C)c1ccccc1 [1-Npm2,5,8,11, H-(Nlys-Npm-Nspe)4-NH2] (H-[Nlys][Nphe][Nspe][Nlys][Nphe][Nspe][Nlys][Nphe][Nspe][Nlys][Nphe][Nspe]-NH2)
- E. coli MIC [5]: 6.3 µM
- CC50 at 3 h [6]: 6.8 µM
- ID50 [7]: 6.8 µM
- MIC [8]: 64 µg/mL (≈ 36.3 µM)
- MIC [9]: 64 µg/mL (≈ 36.3 µM)
- MIC [10]: 8 µg/mL (≈ 4.54 µM)
- MIC [11]: 4 µg/mL (≈ 2.27 µM)
- MIC [12]: 8 µg/mL (≈ 4.54 µM)
- MIC [13]: 16 µg/mL (≈ 9.07 µM)
- MIC [14]: 64 µg/mL (≈ 36.3 µM)
- MIC [15]: 64 µg/mL (≈ 36.3 µM)
- MIC [16]: 8 µg/mL (≈ 4.54 µM)
- MIC [17]: 8 µg/mL (≈ 4.54 µM)
- MIC [18]: 16 µg/mL (≈ 9.07 µM)
- MIC [19]: 16 µg/mL (≈ 9.07 µM)
- MIC [20]: 8 µg/mL (≈ 4.54 µM)
- MIC [21]: 8 µg/mL (≈ 4.54 µM)

Structure (SMILES): C[C@@H](c1ccccc1)N(CC(N)=O)C(=O)CN(C(=O)CN(CCCCN)C(=O)CN(C(=O)CN(C(=O)CN(CCCCN)C(=O)CN(C(=O)CN(C(=O)CN(CCCCN)C(=O)[C@@H]1CCCN1C(=O)CN(C(=O)CNCCCCN)[C@@H](C)c1ccccc1)[C@@H](C)c1ccccc1)[C@@H](C)c1ccccc1)[C@@H](C)c1ccccc1)[C@@H](C)c1ccccc1)[C@@H](C)c1ccccc1 [1-Pro3, H-Nlys-Nspe-L-Pro-(Nlys-Nspe-Nspe)3-NH2] (H-[Nlys][Nspe]P[Nlys][Nspe][Nspe][Nlys][Nspe][Nspe][Nlys][Nspe][Nspe]-NH2)
- HD10 [2]: 74 µM
- E. coli MIC [5]: 12.5 µM
- CC50 at 3 h [6]: 12 µM
- ID50 [7]: 12 µM

Reference: patent publication US20120295838A1, “Selective poly-substituted glycine antibiotics and related compositions” (priority 2008, published 2012)
